According to patent US20210353769A1, “SURFACE MODIFIED EXTRACELLULAR VESICLES” (City University of Hong Kong, priority 2018, published 2021):

Tested on: H358 cells
Assay: Uptake of Calcein AM-labelled RBCEVs by H358 cells (FACS)
Type: cell-based, human
Conditions: 5-20 μg/ml Filipin
Protocol: To test the uptake of RBCEVs by the cells, we labelled RBCEVs with Calcein AM, a fluorescent dye, and sortagged the labelled RBCEVs with biotinylated EGFR-targeting peptide as described above. The labelled and sortagged RBCEVs were washed extensively with SEC and 2 rounds of centrifugation. We incubated H358 cells with a suboptimal dose of the labelled RBCEVs and analysed Calcein AM fluorescence in the cells after 2 hours of incubation (FIG. 8C). The fluorescent background was determined based on the supernatant of the last wash (flowthrough) of the labelled RBCEVs.
In a shorter uptake assay, H358, HCC827, MOLM13 and THP1 cells were incubated with Calcein AM-labelled RBCEVs for 1 to 2 hours at 37° C. To identify the route of EV uptake, we added 25-100 μM EIPA, 5-20 μg/ml Filipin, 0.25-1 μM Wortmannin.
Flow cytometry of latex beads or cells in FACS buffer was performed using a CytoFLEX-S cytometer (Beckman Coulter) and analyzed using Flowjo V10 (Flowjo, USA). The beads or cells were initially gated based on FSC-A and SSC-A to exclude the debris and dead cells (low FSC-A). The cells were further gated based on FSC-width vs. FSC-height, to exclude doublets and aggregates.

CCCCC[C@@H](O)[C@H]1C(=O)O[C@H](C)[C@@H](O)/C=C/C=C/C=C/C=C/C=C(\C)[C@@H](O)C[C@H](O)C[C@H](O)C[C@H](O)C[C@H](O)C[C@H](O)C[C@@H]1O [Filipin]
effect of endocytosis inhibitor on uptake of ET-ligated RBCEVs: reduce the uptake
